Results published in patent publication US12178842B2, “PCSK9 antagonist compounds” (MERCK SHARP & DOHME LLC, priority 2019, dated 2024).

How the values were obtained:
Type in all cases: binding
PCSK9 [1] = biological target: T1, PCSK9 (Homo sapiens, UniProt Q8NBP7); assay: PCSK9 Alexa FRET Standard TR-FRET assay; details: Ki calculated from IC50 and KD of AF cyclic peptide Reagent A; 0.5 nM PCSK9, 20 nM AF cyclic peptide; read-out: Alexa FRET Stdt TR-FRET
T1 construct: biotin (biotinylated); purchased
Description: A solution containing 1 nM biotinylated PCSK9+2.5 nM Lance Streptavidin Europium (Strep-Eu) is made in 50 mM HEPES pH 7.4, 0.15 M NaCl, 5 mM CaCl2, 0.01% BSA, and 0.01% Surfactant P20. A separate solution containing 40 nM of the AlexaFluor tagged cyclic peptide is made in the same buffer system. An Echo is used to transfer 0.750 ul of compound to an assay plate followed by the addition of 15 ul of PCSK9+Stept-Eu and 15 ul of AF peptide. The final assay volume is 30.750 ul containing 0.5 nM PCSK9, 1.25 nM Strep-Eu, and 20 nM AF cyclic peptide. The reaction is incubated at room temperature for at least two hours prior to fluorescence measurements using an Envision Multilabel Reader. IC50 values are determined by fitting data to a sigmoidal dose-response curve using nonlinear regression. Ki is then calculated from the Ic50 and the KD of AF cyclic peptide. Counts (B-counts) of the europium-labeled PCSK9 are followed to observe if compounds are adversely PCSK9. A fall off of the B-counts likely indicates a false positive of inhibition. Data from this procedure is reported as “A=‘numerical value’ (nanomolar)”

PCSK9 [2] = biological target: T1, PCSK9; assay: PCSK9 Alexa FRET Plus TR-FRET assay
Description: A separate solution containing 1920 nM of the AlexaFluor tagged cyclic peptide is made in the same buffer system. […] The reaction is incubated at room temperature for at least two hours prior to fluorescence measurements using an Envision Multilabel Reader. IC50 values are determined by fitting data to a sigmoidal dose-response curve using nonlinear regression. Ki is then calculated from the Ic50 and the KD of AF cyclic peptide. Counts (B-counts) of the europium-labeled PCSK9 are followed to observe if compounds are adversely affecting PCSK9. A fall off of the B-counts is likely indicates a false positive of inhibition. Data from this procedure is reported as “P=‘numerical value’ (nanomolar)”

PCSK9 [3] = biological target: T1, PCSK9; assay: PCSK9 Alexa FRET Ultra TR-FRET assay
Description: A separate solution containing 1920 nM of the AlexaFluor tagged cyclic peptide is made in the same buffer system. […] The reaction is incubated at room temperature for at least two hours prior to fluorescence measurements using an Envision Multilabel Reader. IC50 values are determined by fitting data to a sigmoidal dose-response curve using nonlinear regression. Ki is then calculated from the Ic50 and the KD of AF cyclic peptide. Counts (B-counts) of the europium-labeled PCSK9 are followed to observe if compounds are adversely affecting PCSK9. A fall off of the B-counts is likely indicates a false positive of inhibition. Data from this procedure is reported as “Ki Ultra=‘numerical value’ (data reported is nanomolar)”

[4] = Ki calculated from IC50 and KD of AF cyclic peptide Reagent B, 0.5 nM PCSK9, 960 nM AF cyclic peptide, read-out: Alexa FRET Plus TR-FRET
[5] = Ki Ultra, calculated from IC50 and KD of AF cyclic peptide, 0.5 nM PCSK9, 960 nM AF cyclic peptide, read-out: Alexa FRET Ultra TR-FRET

T1 sequence (Q8NBP7 153-692): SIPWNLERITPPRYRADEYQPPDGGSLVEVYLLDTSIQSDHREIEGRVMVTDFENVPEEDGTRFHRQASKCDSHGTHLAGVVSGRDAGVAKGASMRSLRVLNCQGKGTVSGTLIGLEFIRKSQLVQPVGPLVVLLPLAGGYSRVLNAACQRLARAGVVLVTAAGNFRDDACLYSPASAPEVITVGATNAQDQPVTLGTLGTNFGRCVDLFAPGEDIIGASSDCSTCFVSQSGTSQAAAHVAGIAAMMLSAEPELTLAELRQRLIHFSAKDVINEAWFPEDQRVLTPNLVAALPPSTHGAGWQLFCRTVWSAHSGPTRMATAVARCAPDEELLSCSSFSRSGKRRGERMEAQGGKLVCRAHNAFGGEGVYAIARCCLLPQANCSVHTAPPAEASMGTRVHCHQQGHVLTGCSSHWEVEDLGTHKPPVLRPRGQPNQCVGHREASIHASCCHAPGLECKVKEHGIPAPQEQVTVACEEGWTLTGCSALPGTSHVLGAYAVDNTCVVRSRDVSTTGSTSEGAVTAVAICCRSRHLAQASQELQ

| SMILES | Ki (PCSK9 [1]) | Ki (PCSK9 [2]; [4]) | Ki (PCSK9 [3]; [5]) | Ki (PCSK9 [2]) | Ki (PCSK9 [3]) |
| --- | --- | --- | --- | --- | --- |
| CCCCCCC(=O)NCCCCCCCC(=O)N[C@@H](CCC(=O)NCCOCCOCC(=O)NCCOCCOCC(=O)NCC[N+](C)(C)CCCCCC(=O)NC[C@H]1NC(=O)[C@H](C)NC(=O)CCC(=O)N2CCCCCCn3cc(c4cc(F)ccc43)C[C@@H]3NC(=O)[C@H](Cc4cccc(c4)CNC(=O)CO[C@H]4CCN(C3=O)[C@@H]4C(=O)N[C@@H]([C@@H](C)O)C(=O)N[C@@H](Cc3ccc(OC)cc3)C(=O)N3CCC[C@@]3(C)C(=O)NCCc3ccc(cc3)C2)NC1=O)C(=O)O [Ex-19] | < 1260 pM | < 6 pM | 1 pM |  |  |
| CCCCCCC(=O)NCCCCCCCC(=O)NCC[N+](C)(C)CCOCCOCCC(=O)NC[C@H]1NC(=O)[C@H](C)NC(=O)CCC(=O)N2CCCCCCn3cc(c4cc(F)ccc43)C[C@@H]3NC(=O)[C@H](Cc4cccc(c4)CNC(=O)CO[C@H]4CCN(C3=O)[C@@H]4C(=O)N[C@@H]([C@@H](C)O)C(=O)N[C@@H](Cc3ccc(OC)cc3)C(=O)N3CCC[C@@]3(C)C(=O)NCCc3ccc(cc3)C2)NC1=O [Ex-20] | < 1260 pM | < 6 pM | 1 pM |  |  |
| CCCCCC/C=C\CCCCCCCC(=O)N[C@@H](CCC(=O)NCCOCCOCC(=O)NCCOCCOCC(=O)NCC[N+](C)(C)CCCCCC(=O)NC[C@H]1NC(=O)[C@H](C)NC(=O)CCC(=O)N2CCCCCCn3cc(c4cc(F)ccc43)C[C@@H]3NC(=O)[C@H](Cc4cccc(c4)CNC(=O)CO[C@H]4CCN(C3=O)[C@@H]4C(=O)N[C@@H]([C@@H](C)O)C(=O)N[C@@H](Cc3ccc(OC)cc3)C(=O)N3CCC[C@@]3(C)C(=O)NCCc3ccc(cc3)C2)NC1=O)C(=O)O [Ex-21] | < 1260 pM | 10 pM | 1 pM |  |  |
| COc1ccc(C[C@@H]2NC(=O)[C@H]([C@@H](C)O)NC(=O)[C@@H]3[C@@H]4CCN3C(=O)[C@@H]3Cc5cn(c6ccc(F)cc56)CCCCCCN(Cc5ccc(cc5)CCNC(=O)[C@]5(C)CCCN5C2=O)C(=O)CCC(=O)N[C@@H](C)C(=O)N[C@H](CNC(=O)CCOCCOCC[N+](C)(C)CCNC(=O)CCCCCCCCCCCCCCCCC(=O)O)C(=O)N[C@@H](Cc2cccc(c2)CNC(=O)CO4)C(=O)N3)cc1 [Ex-23] | < 1260 pM | < 6 pM | 7 pM |  |  |
| COc1ccc(C[C@@H]2NC(=O)[C@H]([C@@H](C)O)NC(=O)[C@@H]3[C@@H]4CCN3C(=O)[C@@H]3Cc5cn(c6ccc(F)cc56)CCCCCCN(Cc5ccc(cc5)CCNC(=O)[C@]5(C)CCCN5C2=O)C(=O)CCC(=O)N[C@@H](C)C(=O)N[C@H](CNC(=O)CCOCCOCCNC(=O)CCCCCCCCCCCCCCCCC(=O)O)C(=O)N[C@@H](Cc2cccc(c2)CNC(=O)CO4)C(=O)N3)cc1 [Ex-24] | < 1260 pM | 9 pM | 18 pM |  |  |
| COc1ccc(C[C@@H]2NC(=O)[C@H]([C@@H](C)O)NC(=O)[C@@H]3[C@@H]4CCN3C(=O)[C@@H]3Cc5cn(c6ccc(F)cc56)CCCCCCN(Cc5ccc(cc5)CCNC(=O)[C@]5(C)CCCN5C2=O)C(=O)CCC(=O)N[C@@H](C)C(=O)N[C@H](CNC(=O)CCCCC[N+](C)(C)CCNC(=O)CCCCC[N+](C)(C)CCNC(=O)COCCOCCNC(=O)COCCOCCNC(=O)CC[C@H](NC(=O)CCCCCCCCCCCCCCCCC(=O)O)C(=O)O)C(=O)N[C@@H](Cc2cccc(c2)CNC(=O)CO4)C(=O)N3)cc1 [Ex-26] | < 1260 pM | 6 pM | 8 pM |  |  |
| COc1ccc(C[C@@H]2NC(=O)[C@H]([C@@H](C)O)NC(=O)[C@@H]3[C@@H]4CCN3C(=O)[C@@H]3Cc5cn(c6ccc(F)cc56)CCCCCCN(Cc5ccc(cc5)CCNC(=O)[C@]5(C)CCCN5C2=O)C(=O)CCC(=O)N[C@@H](C)C(=O)N[C@H](CNC(=O)CCCCC[N+](C)(C)CCNC(=O)COCCOCCNC(=O)COCCOCCNC(=O)CC[C@H](NC(=O)CCCCCCCCCCCCCCCCCCC(=O)O)C(=O)O)C(=O)N[C@@H](Cc2cccc(c2)CNC(=O)CO4)C(=O)N3)cc1 [Ex-27] | < 1260 pM |  |  | 14 pM | 6 pM |
| COc1ccc(C[C@@H]2NC(=O)[C@H]([C@@H](C)O)NC(=O)[C@@H]3[C@@H]4CCN3C(=O)[C@@H]3Cc5cn(c6ccc(F)cc56)CCCCCCN(Cc5ccc(cc5)CCNC(=O)[C@]5(C)CCCN5C2=O)C(=O)CCC(=O)N[C@@H](C)C(=O)N[C@H](CNC(=O)COCCOCCNC(=O)COCCOCCNC(=O)CCOCCOCC[N+](C)(C)CCNC(=O)COCCOCCNC(=O)COCCOCCNC(=O)CC[C@H](NC(=O)CCCCCCCCCCCCCCCCC(=O)O)C(=O)O)C(=O)N[C@@H](Cc2cccc(c2)CNC(=O)CO4)C(=O)N3)cc1 [Ex-29] | < 1260 pM | 11 pM | 13 pM |  |  |

More lines, main results first:

| Ki (PCSK9 [1]) | Ki (PCSK9 [2]; [4]) | Ki (PCSK9 [3]; [5]) | SMILES | Ki (PCSK9 [2]) | Ki (PCSK9 [3]) |
| --- | --- | --- | --- | --- | --- |
| < 1260 pM | 15 pM | 4 pM | COc1ccc(C[C@@H]2NC(=O)[C@H]([C@@H](C)O)NC(=O)[C@@H]3[C@@H]4CCN3C(=O)[C@@H]3Cc5cn(c6ccc(F)cc56)CCCCCCN(Cc5ccc(cc5)CCNC(=O)[C@]5(C)CCCN5C2=O)C(=O)CCC(=O)N[C@@H](C)C(=O)N[C@H](CNC(=O)CCOCCOCC[N+](C)(C)CCNC(=O)COCCOCCNC(=O)COCCOCCNC(=O)CC[C@H](NC(=O)CCCCCCCCCCCCCCCCC(=O)O)C(=O)O)C(=O)N[C@@H](Cc2cccc(c2)CNC(=O)CO4)C(=O)N3)cc1 [Ex-22] |  |  |
| < 1260 pM | 6 pM | 9 pM | COc1ccc(C[C@@H]2NC(=O)[C@H]([C@@H](C)O)NC(=O)[C@@H]3[C@@H]4CCN3C(=O)[C@@H]3Cc5cn(c6ccc(F)cc56)C/C=C/CCCN(Cc5ccc(cc5)CCNC(=O)[C@]5(C)CCCN5C2=O)C(=O)CCC(=O)N[C@@H](C)C(=O)N[C@H](CNC(=O)CCCCC[N+](C)(C)CCNC(=O)COCCOCCNC(=O)COCCOCCNC(=O)CC[C@H](NC(=O)CCCCCCCCCCCCCCCCC(=O)O)C(=O)O)C(=O)N[C@@H](Cc2cccc(c2)CNC(=O)CO4)C(=O)N3)cc1 [Ex-25] |  |  |
| < 1260 pM | 13 pM | 10 pM | COc1ccc(C[C@@H]2NC(=O)[C@H]([C@@H](C)O)NC(=O)[C@@H]3[C@@H]4CCN3C(=O)[C@@H]3Cc5cn(c6ccc(F)cc56)CCCCCCN(Cc5ccc(cc5)CCNC(=O)[C@]5(C)CCCN5C2=O)C(=O)CCC(=O)N[C@@H](C)C(=O)N[C@H](CNC(=O)COCCOCCOCCOCCNC(=O)CCCCC[N+](C)(C)CCNC(=O)COCCOCCNC(=O)COCCOCCNC(=O)CC[C@@H](NC(=O)CCCCCCCCCCCCCCCCC(=O)O)C(=O)O)C(=O)N[C@@H](Cc2cccc(c2)CNC(=O)CO4)C(=O)N3)cc1 [Ex-28] |  |  |
| < 1260 pM | < 6 pM | 6 pM | COc1ccc(C[C@@H]2NC(=O)[C@H]([C@@H](C)O)NC(=O)[C@@H]3[C@@H]4CCN3C(=O)[C@@H]3Cc5cn(c6ccc(F)cc56)CCCCCCN(Cc5ccc(cc5)CCNC(=O)[C@]5(C)CCCN5C2=O)C(=O)CCC(=O)N[C@@H](C)C(=O)N[C@H](CNC(=O)COCCOCC[N+](C)(C)CCOCCNC(=O)COCCOCCNC(=O)COCCOCCNC(=O)CC[C@H](NC(=O)CCCCCCCCCCCCCCCCC(=O)O)C(=O)O)C(=O)N[C@@H](Cc2cccc(c2)CNC(=O)CO4)C(=O)N3)cc1 [Ex-31] |  |  |
| < 1260 pM | < 6 pM | 3 pM | COc1ccc(C[C@@H]2NC(=O)[C@H]([C@@H](C)O)NC(=O)[C@@H]3[C@@H]4CCN3C(=O)[C@@H]3Cc5cn(c6ccc(F)cc56)CCCCCCN(Cc5ccc(cc5)CCNC(=O)[C@]5(C)CCCN5C2=O)C(=O)CCC(=O)N[C@@H](C)C(=O)N[C@H](CNC(=O)CCOCCOCC[N+](C)(C)CCNC(=O)COCCOCCNC(=O)COCCOCCNC(=O)CC[C@H](NC(=O)CC[C@H](NC(=O)CCCCCCCCCCCCCCC(=O)O)C(=O)O)C(=O)O)C(=O)N[C@@H](Cc2cccc(c2)CNC(=O)CO4)C(=O)N3)cc1 [Ex-34] |  |  |
| < 1260 pM | 7 pM | 9 pM | COc1ccc(C[C@@H]2NC(=O)[C@H]([C@@H](C)O)NC(=O)[C@@H]3[C@@H]4CCN3C(=O)[C@@H]3Cc5cn(c6ccc(F)cc56)CCCCCCN(Cc5ccc(cc5)CCNC(=O)[C@]5(C)CCCN5C2=O)C(=O)CCC(=O)N[C@@H](C)C(=O)N[C@H](CNC(=O)COCC[N+](C)(C)CCOCCNC(=O)COCCOCCNC(=O)COCCOCCNC(=O)CC[C@H](NC(=O)CCCCCCCCCCCCCCCCC(=O)O)C(=O)O)C(=O)N[C@@H](Cc2cccc(c2)CNC(=O)CO4)C(=O)N3)cc1 [Ex-35] |  |  |
